ChEMBL document CHEMBL1165880, “'On water' assisted synthesis and biological evaluation of nitrogen and sulfur containing hetero-1,4-naphthoquinones as potent antifungal and antibacterial agents” (2010)
≈ marks a conversion by molar mass, not a printed value. Calls of active or inactive are those of the source. No cut-off for these calls is given here.

Key:
Pseudomonas aeruginosa = experiment: Antibacterial activity against Pseudomonas aeruginosa […] at 50 ug/ml after 24 hrs by micro broth dilution method; assay type: functional, organism-based
Staphylococcus aureus = experiment: Antibacterial activity against Staphylococcus aureus ATCC 25923 after 24 hrs by micro broth dilution method; assay type: functional
Candida albicans = experiment: Antifungal activity against Candida albicans after 48 hrs by micro broth dilution method; assay type: functional
Klebsiella pneumoniae = experiment: Antibacterial activity against Klebsiella pneumoniae ATCC 27736 after 24 hrs by micro broth dilution method; assay type: functional
Cryptococcus neoformans = experiment: Antifungal activity against Cryptococcus neoformans after 72 hrs by micro broth dilution method; assay type: functional
[1] = test system: Trichophyton mentagrophytes; experiment: Antifungal activity against Trichophyton mentagrophytes after 96 hrs by micro broth dilution method; assay type: functional
Aspergillus fumigatus = experiment: Antifungal activity against Aspergillus fumigatus after 72 hrs by micro broth dilution method; assay type: functional
Candida parapsilosis = experiment: Antifungal activity against Candida parapsilosis ATCC 22019 after 48 hrs by micro broth dilution method; assay type: functional
Escherichia coli = experiment: Antibacterial activity against Escherichia coli after 24 hrs by micro broth dilution method; assay type: functional

Compound	Activity (Pseudomonas aeruginosa)	MIC50 (Staphylococcus aureus)	MIC50 (Candida albicans)	MIC50 (Klebsiella pneumoniae)	MIC50 (Cryptococcus neoformans)	MIC50 [1]	MIC50 (Aspergillus fumigatus)	MIC50 (Candida parapsilosis)	MIC50 (Escherichia coli)
C=CCNC1=C(Cl)C(=O)c2ccccc2C1=O	inactive	101 µM (≈ 25 µg/mL)	50.5 µM (≈ 12.5 µg/mL)	25.2 µM (≈ 6.25 µg/mL)	50.5 µM (≈ 12.5 µg/mL)	3.15 µM (≈ 0.78 µg/mL)	101 µM (≈ 25 µg/mL)	50.5 µM (≈ 12.5 µg/mL)	101 µM (≈ 25 µg/mL)
Cc1sc2c(=O)c3ccccc3c(=O)c=2n(C)c1O		11.4 µM (≈ 3.12 µg/mL)	22.9 µM (≈ 6.25 µg/mL)	11.4 µM (≈ 3.12 µg/mL)	11.4 µM (≈ 3.12 µg/mL)	5.71 µM (≈ 1.56 µg/mL)	22.9 µM (≈ 6.25 µg/mL)	45.7 µM (≈ 12.5 µg/mL)	5.71 µM (≈ 1.56 µg/mL)
O=C1C(Cl)=C(N2CCCCC2)C(=O)c2ccccc21	inactive	90.7 µM (≈ 25 µg/mL)	5.66 µM (≈ 1.56 µg/mL)	90.7 µM (≈ 25 µg/mL)	22.7 µM (≈ 6.26 µg/mL)	1.42 µM (≈ 0.392 µg/mL)	90.7 µM (≈ 25 µg/mL)	11.3 µM (≈ 3.12 µg/mL)	43.4 µM (≈ 12 µg/mL)
CN1CCN(C2=CC(=O)c3c(O)ccc(O)c3C2=O)CC1	inactive	173 µM (≈ 50 µg/mL)	> 173 µM	173 µM (≈ 50 µg/mL)	> 73.4 µM	> 173 µM	173 µM (≈ 50 µg/mL)	173 µM (≈ 50 µg/mL)	173 µM (≈ 50 µg/mL)
CCOC(=O)CSC1=C(Cl)C(=O)c2ccccc2C1=O		40.2 µM (≈ 12.5 µg/mL)	> 161 µM	161 µM (≈ 50 µg/mL)	40.2 µM (≈ 12.5 µg/mL)	> 161 µM	> 161 µM	> 161 µM	40.2 µM (≈ 12.5 µg/mL)
Cn1c(O)csc2c(=O)c3ccccc3c(=O)c1=2	inactive	3 µM (≈ 0.778 µg/mL)	3 µM (≈ 0.778 µg/mL)	3 µM (≈ 0.778 µg/mL)	24.1 µM (≈ 6.25 µg/mL)	3 µM (≈ 0.778 µg/mL)	24.1 µM (≈ 6.25 µg/mL)	6.02 µM (≈ 1.56 µg/mL)	24.1 µM (≈ 6.25 µg/mL)
OC(Cn1cncn1)(Cn1cncn1)c1ccc(F)cc1F [FLUCONAZOLE]			3.26 µM (≈ 0.998 µg/mL)		1.63 µM (≈ 0.499 µg/mL)	5.09 µM (≈ 1.56 µg/mL)		3.26 µM (≈ 0.998 µg/mL)	
NC[C@H]1O[C@H](O[C@H]2[C@H](O)[C@@H](O[C@H]3O[C@H](CO)[C@@H](O)[C@H](N)[C@H]3O)[C@H](N)C[C@@H]2N)[C@H](O)[C@@H](O)[C@@H]1O [KANAMYCIN]		4.13 µM (≈ 2 µg/mL)		66 µM (≈ 32 µg/mL)					33 µM (≈ 16 µg/mL)
CN1CCN(C2=C(Cl)C(=O)c3ccccc3C2=O)CC1	inactive	43.1 µM (≈ 12.5 µg/mL)	5.38 µM (≈ 1.56 µg/mL)	21.5 µM (≈ 6.26 µg/mL)	21.5 µM (≈ 6.26 µg/mL)	1.34 µM (≈ 0.39 µg/mL)	43.1 µM (≈ 12.5 µg/mL)	21.5 µM (≈ 6.26 µg/mL)	43.1 µM (≈ 12.5 µg/mL)
O=C1C(Cl)=C(N2CCCC2)C(=O)c2ccccc21	inactive	95.4 µM (≈ 25 µg/mL)	11.9 µM (≈ 3.11 µg/mL)	95.4 µM (≈ 25 µg/mL)	23.9 µM (≈ 6.24 µg/mL)	1.49 µM (≈ 0.39 µg/mL)	95.4 µM (≈ 25 µg/mL)	23.9 µM (≈ 6.24 µg/mL)	47.7 µM (≈ 12.5 µg/mL)
O=C1C(Cl)=C(N2CCOCC2)C(=O)c2ccccc21 [2-Chloro-3-morpholino-1,4-naphthoquinone]	inactive	180 µM (≈ 50 µg/mL)	45 µM (≈ 12.5 µg/mL)	22.5 µM (≈ 6.25 µg/mL)	22.5 µM (≈ 6.25 µg/mL)	2.81 µM (≈ 0.78 µg/mL)	90.1 µM (≈ 25 µg/mL)	22.5 µM (≈ 6.25 µg/mL)	45 µM (≈ 12.5 µg/mL)
Clc1ccc(COC(Cn2ccnc2)c2ccc(Cl)cc2Cl)c(Cl)c1 (stereo not given) [MICONAZOLE]			60.1 µM (≈ 25 µg/mL)		30 µM (≈ 12.5 µg/mL)	< 1.87 µM	30 µM (≈ 12.5 µg/mL)		
NYSTATIN			8.42 µM		3.78 µM				
NC[C@H]1O[C@H](O[C@H]2[C@H](O)[C@@H](O[C@H]3O[C@H](CO)[C@@H](O)[C@H](N)[C@H]3O)[C@H](N)C[C@@H]2N)[C@H](N)C[C@@H]1O [TOBRAMYCIN]		0.53 µM (≈ 0.248 µg/mL)		2.14 µM (≈ 1 µg/mL)					1.07 µM (≈ 0.5 µg/mL)
O=C1C=C(N2CCCC2)C(=O)c2c(O)ccc(O)c21	inactive	193 µM (≈ 50 µg/mL)	> 193 µM	193 µM (≈ 50 µg/mL)	> 193 µM	96.4 µM (≈ 25 µg/mL)	> 193 µM	> 193 µM	193 µM (≈ 50 µg/mL)
COC(=O)CSC1=C(Cl)C(=O)c2ccccc2C1=O	inactive	42.1 µM (≈ 12.5 µg/mL)	> 168 µM	42.1 µM (≈ 12.5 µg/mL)	168 µM (≈ 50 µg/mL)	42.1 µM (≈ 12.5 µg/mL)	168 µM (≈ 50 µg/mL)	168 µM (≈ 50 µg/mL)	42.1 µM (≈ 12.5 µg/mL)
O=C(O)CSC1=C(Cl)C(=O)c2ccccc2C1=O	inactive	44.2 µM (≈ 12.5 µg/mL)	88.5 µM (≈ 25 µg/mL)	22.1 µM (≈ 6.25 µg/mL)	88.5 µM (≈ 25 µg/mL)	5.52 µM (≈ 1.56 µg/mL)	177 µM (≈ 50 µg/mL)	88.5 µM (≈ 25 µg/mL)	44.2 µM (≈ 12.5 µg/mL)
CCOC(=O)C(C)SC1=C(Cl)C(=O)c2ccccc2C1=O (stereo not given)		38.5 µM (≈ 12.5 µg/mL)	> 154 µM	154 µM (≈ 50 µg/mL)	38.5 µM (≈ 12.5 µg/mL)	> 154 µM	> 154 µM	> 154 µM	38.5 µM (≈ 12.5 µg/mL)
C[C@@H]1[C@H](O)[C@@H](C)/C=C/C=C/C=C/C=C/C=C/C=C/C=C/[C@H](O[C@@H]2O[C@H](C)[C@@H](O)[C@H](N)[C@@H]2O)C[C@@H]2O[C@](O)(C[C@@H](O)C[C@@H](O)[C@H](O)CC[C@@H](O)C[C@@H](O)CC(=O)O[C@H]1C)C[C@H](O)[C@H]2C(=O)O [AMPHOTERICIN B]			0.42 µM (≈ 0.388 µg/mL)		0.84 µM (≈ 0.776 µg/mL)	1.69 µM (≈ 1.56 µg/mL)			
O=C1C(Cl)=C(NNc2ccccc2)C(=O)c2ccccc21	inactive	83.8 µM (≈ 25 µg/mL)	10.4 µM (≈ 3.12 µg/mL)	83.8 µM (≈ 25 µg/mL)	10.4 µM (≈ 3.12 µg/mL)	1.31 µM (≈ 0.391 µg/mL)	41.9 µM (≈ 12.5 µg/mL)	20.9 µM (≈ 6.26 µg/mL)	83.8 µM (≈ 25 µg/mL)
NCC[C@H](O)C(=O)N[C@@H]1C[C@H](N)[C@@H](O[C@H]2O[C@H](CN)[C@@H](O)[C@H](O)[C@H]2O)[C@H](O)[C@H]1O[C@H]1O[C@H](CO)[C@@H](O)[C@H](N)[C@H]1O [AMIKACIN]		27.3 µM (≈ 16 µg/mL)		1.71 µM (≈ 1 µg/mL)					1.71 µM (≈ 1 µg/mL)
O=C1C(=O)c2ccccc2C(O)=C1Sc1ccccc1	inactive	177 µM (≈ 50 µg/mL)	177 µM (≈ 50 µg/mL)	177 µM (≈ 50 µg/mL)	> 177 µM	177 µM (≈ 50 µg/mL)	> 177 µM	> 177 µM	88.6 µM (≈ 25 µg/mL)
GENTAMICIN		1.63 µM		0.82 µM					0.38 µM
O=C1C(Cl)=C(SCCS)C(=O)c2ccccc21	inactive	43.9 µM (≈ 12.5 µg/mL)	11 µM (≈ 3.12 µg/mL)	21.9 µM (≈ 6.25 µg/mL)	11 µM (≈ 3.12 µg/mL)	1.37 µM (≈ 0.39 µg/mL)	87.8 µM (≈ 25 µg/mL)	43.9 µM (≈ 12.5 µg/mL)	87.8 µM (≈ 25 µg/mL)
O=C(O)CC(SC1=C(Cl)C(=O)c2ccccc2C1=O)C(=O)O (stereo not given)	inactive	147 µM (≈ 50 µg/mL)	> 147 µM	4.58 µM (≈ 1.56 µg/mL)	147 µM (≈ 50 µg/mL)	36.7 µM (≈ 12.5 µg/mL)	147 µM (≈ 50 µg/mL)	147 µM (≈ 50 µg/mL)	36.7 µM (≈ 12.5 µg/mL)
